Source: patent US6753348B2, “BTK inhibitors and methods for their identification and use” (Parker Hughes Institute, priority 1998, dated 2004)

Legend:
[1] = system: OVA-sensitized and challenged mice; experiment: Eosinophil infiltration in bronchoalveolar lavage of OVA challenged mice; assay type: in vivo, mouse; conditions: ovalbumin sensitized and challenged mice, pretreatment
Description: FIG. 29: Inhibition of eosinophil infiltration in bronchoalveolar lavage of OVA challenged mice by LFM-A8. The lungs of the mice were lavaged after methacholine challenge and eosinophil numbers were counted. The results of eosinophils are expressed as percent of total cell counts. The data points represent the mean±SEM values obtained from 5-6 mice. *P<0.05 compared to vehicle-treated control, as determined by Student's t test.
Assessment of Eosinophil Infiltration. After airway responsiveness measurements, lungs were lavaged thoroughly with 1 ml saline. The lavage fluid was centrifuged and the supernatant was removed. The cell pellet was resuspended in saline containing 0.1% BSA to give a final cell concentration of 0.1×10^6/ml. Cytospin smears made from the cell suspension were stained with Wright-Giemsa and the number of eosinophils were counted.

[2] = molecular target: JAK1 (Homo sapiens, UniProt P23458); experiment: Cell-free tyrosine kinase inhibition assay JAK1; assay type: biochemical
Chain of JAK1 (P23458 whole entry, species assumed): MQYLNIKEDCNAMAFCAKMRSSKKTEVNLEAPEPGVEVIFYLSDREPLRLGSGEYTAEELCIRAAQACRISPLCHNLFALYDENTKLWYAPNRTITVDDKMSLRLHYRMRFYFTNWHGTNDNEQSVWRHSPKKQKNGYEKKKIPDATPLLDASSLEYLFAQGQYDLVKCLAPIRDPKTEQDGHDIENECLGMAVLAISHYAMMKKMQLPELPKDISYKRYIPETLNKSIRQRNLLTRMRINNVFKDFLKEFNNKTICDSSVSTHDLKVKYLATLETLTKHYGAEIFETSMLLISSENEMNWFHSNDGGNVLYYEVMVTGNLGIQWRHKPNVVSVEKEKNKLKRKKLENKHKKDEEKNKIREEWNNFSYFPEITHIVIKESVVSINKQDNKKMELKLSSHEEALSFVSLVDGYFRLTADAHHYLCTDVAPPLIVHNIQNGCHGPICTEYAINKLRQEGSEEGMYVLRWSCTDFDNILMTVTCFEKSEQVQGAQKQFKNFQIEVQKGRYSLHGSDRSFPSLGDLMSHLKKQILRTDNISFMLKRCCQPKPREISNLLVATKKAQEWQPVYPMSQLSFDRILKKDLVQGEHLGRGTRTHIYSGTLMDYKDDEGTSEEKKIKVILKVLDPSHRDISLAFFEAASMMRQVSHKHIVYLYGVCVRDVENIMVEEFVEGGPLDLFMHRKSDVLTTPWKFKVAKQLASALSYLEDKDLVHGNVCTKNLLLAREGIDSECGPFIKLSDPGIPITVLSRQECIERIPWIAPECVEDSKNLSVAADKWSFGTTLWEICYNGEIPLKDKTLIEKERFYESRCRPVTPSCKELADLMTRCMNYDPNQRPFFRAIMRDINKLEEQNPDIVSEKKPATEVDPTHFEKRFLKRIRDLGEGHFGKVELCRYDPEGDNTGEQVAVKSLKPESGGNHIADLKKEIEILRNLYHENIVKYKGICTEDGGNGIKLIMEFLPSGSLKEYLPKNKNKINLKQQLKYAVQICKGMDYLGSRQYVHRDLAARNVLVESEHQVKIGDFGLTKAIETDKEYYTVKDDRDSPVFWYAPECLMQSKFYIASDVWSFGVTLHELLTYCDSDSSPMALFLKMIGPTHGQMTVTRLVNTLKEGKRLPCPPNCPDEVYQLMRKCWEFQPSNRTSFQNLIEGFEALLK

[3] = molecular target: EGF-Receptor Kinase (EGFR) (Homo sapiens, UniProt P00533); experiment: Cell-free tyrosine kinase inhibition assay EGFR; assay type: biochemical
Chain of EGF-Receptor Kinase (EGFR) (P00533 25-1210, species assumed): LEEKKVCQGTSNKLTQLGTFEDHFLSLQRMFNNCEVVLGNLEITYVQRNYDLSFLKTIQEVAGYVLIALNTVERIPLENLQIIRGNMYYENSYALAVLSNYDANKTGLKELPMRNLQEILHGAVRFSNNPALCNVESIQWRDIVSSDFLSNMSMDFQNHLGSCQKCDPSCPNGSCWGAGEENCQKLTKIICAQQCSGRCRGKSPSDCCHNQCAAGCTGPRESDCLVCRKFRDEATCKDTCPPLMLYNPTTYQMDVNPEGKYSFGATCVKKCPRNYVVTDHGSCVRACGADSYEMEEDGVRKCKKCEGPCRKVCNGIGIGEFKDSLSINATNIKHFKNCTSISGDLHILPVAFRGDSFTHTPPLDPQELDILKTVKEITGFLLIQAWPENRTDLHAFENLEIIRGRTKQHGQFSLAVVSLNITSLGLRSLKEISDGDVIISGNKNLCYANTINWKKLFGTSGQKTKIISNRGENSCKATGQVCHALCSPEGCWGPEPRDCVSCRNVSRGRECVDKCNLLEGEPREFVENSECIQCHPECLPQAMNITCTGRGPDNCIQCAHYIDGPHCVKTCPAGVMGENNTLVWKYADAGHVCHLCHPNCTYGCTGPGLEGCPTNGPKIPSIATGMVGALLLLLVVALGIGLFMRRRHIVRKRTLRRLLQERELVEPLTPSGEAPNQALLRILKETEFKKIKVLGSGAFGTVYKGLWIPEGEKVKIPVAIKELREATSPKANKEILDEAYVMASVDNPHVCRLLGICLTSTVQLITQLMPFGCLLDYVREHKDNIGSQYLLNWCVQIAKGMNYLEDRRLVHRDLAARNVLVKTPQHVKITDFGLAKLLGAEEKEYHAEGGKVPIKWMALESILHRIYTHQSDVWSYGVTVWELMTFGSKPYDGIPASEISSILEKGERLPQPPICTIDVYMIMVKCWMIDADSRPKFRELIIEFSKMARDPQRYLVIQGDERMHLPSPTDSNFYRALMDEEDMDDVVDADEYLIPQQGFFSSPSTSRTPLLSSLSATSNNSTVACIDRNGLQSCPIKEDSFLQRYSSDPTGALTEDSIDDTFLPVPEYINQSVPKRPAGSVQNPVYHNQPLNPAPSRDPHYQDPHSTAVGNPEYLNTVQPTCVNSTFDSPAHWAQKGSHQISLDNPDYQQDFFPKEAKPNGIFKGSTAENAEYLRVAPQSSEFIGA

[4] = molecular target: HCK (Homo sapiens, UniProt P08631); experiment: Cell-free tyrosine kinase inhibition assay HCK from transfected COS-7 cells; assay type: biochemical
Chain of HCK (P08631 whole entry, species assumed, the tested form may be a part): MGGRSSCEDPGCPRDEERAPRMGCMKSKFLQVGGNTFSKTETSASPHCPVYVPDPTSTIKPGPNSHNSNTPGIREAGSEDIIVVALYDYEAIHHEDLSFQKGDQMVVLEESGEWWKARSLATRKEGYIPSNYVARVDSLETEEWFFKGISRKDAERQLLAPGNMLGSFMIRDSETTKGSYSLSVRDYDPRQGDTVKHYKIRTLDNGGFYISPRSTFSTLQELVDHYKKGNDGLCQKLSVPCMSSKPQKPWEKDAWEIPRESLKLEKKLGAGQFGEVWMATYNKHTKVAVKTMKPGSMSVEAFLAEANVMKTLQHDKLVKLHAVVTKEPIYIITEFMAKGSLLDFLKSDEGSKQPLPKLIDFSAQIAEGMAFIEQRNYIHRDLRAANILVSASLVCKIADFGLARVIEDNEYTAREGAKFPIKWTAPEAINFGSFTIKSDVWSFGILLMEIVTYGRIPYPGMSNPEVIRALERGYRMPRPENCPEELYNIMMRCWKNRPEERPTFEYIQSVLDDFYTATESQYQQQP

[5] = system: NALM-6-UM1 cells; experiment: Fas-mediated apoptosis, DNA fragmentation; assay type: cell-based, human
Experimental: FIGS. 6A-6D: Apoptotic Responses of Human B-lineage Leukemia Cells to Fas Ligation in Relationship to BTK Expression and Function. Anti-BTK and anti-Actin dual-antibody Western blot analysis of whole cell lysates from BTK-positive NALM-6-UM1 (N6-U1) and BTK-deficient RAMOS-1 cells (FIG. 5A). Anti-Fas Western blot analysis of the same cell lysates. [B] Cells were harvested 24 hours after exposure to anti-Fas antibody at 0.1 μg/ml or 1.0 μg/ml concentrations and DNA from Triton-X-100 lysates was analyzed for fragmentation, as described by Uckun, F. M., et al. (1996) Science 273, 1096-1100; and Uckun, F. M., et al. (1995) Science 267, 886-91. […] [C.1] and [C.2] […] N6-U1 cells were harvested 24 hours after exposure to anti-Fas antibody at 0.1 μg/ml or 1.0 μg/ml concentrations and DNA from Triton-X-100 lysates was analyzed for fragmentation, as described by Uckun, F. M., et al. (1996) Science 273, 1096-1100; and Uckun, F. M., et al. (1995) Science 267, 886-91. […]
Apoptosis Assays. […] MC540 binding (as an early marker of apoptosis) and PI permeability (as a marker of advanced stage apoptosis) were simultaneously measured in DT-40 cells 24 hours after exposure to anti-Fas antibody as previously described (Uckun, F. M., et al. (1996) Science 273, 1096-1100). Whole cells were analyzed with a FACStar Plus flow cytometer (Becton Dickinson, San Jose, Calif.). […]

[6] = molecular target: BTK-Fas association in NALM-6-UM1 cells (Homo sapiens, UniProt Q06187); experiment: BTK-Fas association, Western blot of BTK immune complexes; assay type: cell-based; conditions: 10 μM x 4 hours
Chain of BTK-Fas association in NALM-6-UM1 cells (Q06187 2-659): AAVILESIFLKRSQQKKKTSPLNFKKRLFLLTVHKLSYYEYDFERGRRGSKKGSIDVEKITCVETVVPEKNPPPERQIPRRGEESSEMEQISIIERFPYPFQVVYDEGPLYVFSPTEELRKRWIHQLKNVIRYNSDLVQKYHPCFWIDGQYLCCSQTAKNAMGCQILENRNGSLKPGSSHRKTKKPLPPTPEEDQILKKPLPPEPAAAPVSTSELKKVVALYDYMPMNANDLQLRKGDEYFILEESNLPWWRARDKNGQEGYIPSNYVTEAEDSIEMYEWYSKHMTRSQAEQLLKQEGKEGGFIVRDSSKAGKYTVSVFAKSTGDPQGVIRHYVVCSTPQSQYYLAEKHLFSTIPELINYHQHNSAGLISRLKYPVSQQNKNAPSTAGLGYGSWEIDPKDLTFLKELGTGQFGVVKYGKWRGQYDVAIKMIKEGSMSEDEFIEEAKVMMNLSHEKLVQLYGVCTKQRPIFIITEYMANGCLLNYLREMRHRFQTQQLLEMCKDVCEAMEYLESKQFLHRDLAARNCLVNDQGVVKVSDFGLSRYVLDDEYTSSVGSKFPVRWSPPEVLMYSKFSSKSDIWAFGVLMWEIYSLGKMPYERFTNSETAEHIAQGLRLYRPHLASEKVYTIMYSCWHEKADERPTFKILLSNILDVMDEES
Experimental: FIGS. 6A-6D: Apoptotic Responses of Human B-lineage Leukemia Cells to Fas Ligation in Relationship to BTK Expression and Function. Anti-BTK and anti-Actin dual-antibody Western blot analysis of whole cell lysates from BTK-positive NALM-6-UM1 (N6-U1) and BTK-deficient RAMOS-1 cells (FIG. 5A). Anti-Fas Western blot analysis of the same cell lysates. [B] Cells were harvested 24 hours after exposure to anti-Fas antibody at 0.1 μg/ml or 1.0 μg/ml concentrations and DNA from Triton-X-100 lysates was analyzed for fragmentation, as described by Uckun, F. M., et al. (1996) Science 273, 1096-1100; and Uckun, F. M., et al. (1995) Science 267, 886-91. […] [C.1] and [C.2] Anti-BTK and anti-Fas Western blot analysis of whole cell lysates from N6-U1 cells treated with the BTK inhibitor LMA-13 (10 μM×4 hours). [C.3] Anti-Fas and Anti-BTK Western blot analysis of anti-BTK antibody immunoprecipitated BTK immune complexes from untreated (=−Inhibitor) and LMA-13-treated (10 μM×4 hours) (=+Inhibitor) N6-U1 cells. [D]. N6-U1 cells were harvested 24 hours after exposure to anti-Fas antibody at 0.1 μg/ml or 1.0 μg/ml concentrations and DNA from Triton-X-100 lysates was analyzed for fragmentation, as described by Uckun, F. M., et al. (1996) Science 273, 1096-1100; and Uckun, F. M., et al. (1995) Science 267, 886-91. […]

[7] = concentrations as high as 100 μg/ml (~278 μM)

Row | Structure (SMILES) | reduction of numbers of eosinophils in BAL fluid [1] [%] | melting point [°C] | IC50 [2] [µM] | effect on enzymatic activity of JAK1 [2, 7] | IC50 ([3]; EGFR) [µM] | effect on enzymatic activity of EGFR [3, 7] | IC50 [4] [µM] | effect on enzymatic activity of HCK [4, 7] | sensitivity to Fas-mediated apoptosis after pretreatment ([5]; 10 μM x 4 hours, then anti-Fas 0.1 or 1.0 μg/ml, 24 hours) | apoptosis by compound alone ([5]; 10 μM, 4 hour treatment) | BTK-Fas association [6]
1 | CC(O)=C(C#N)C(=O)Nc1cccc(C(F)(F)F)c1 [LFM-A8, α-Cyano-β-hydroxy-β-methyl-N-[3-(trifluoromethyl)phenyl]-propenamide] | 80 | 182 to 184 |  |  |  |  |  |  |  |  | 
2 | C/C(O)=C(\C#N)C(=O)Nc1cc(Br)ccc1Br [LFM-A13, α-Cyano-β-hydroxy-β-methyl-N-(2,5-dibromophenyl)-propenamide] |  |  | > 278 | did not affect the enzymatic activity | > 278 | did not affect the enzymatic activity | > 278 | did not affect the enzymatic activity | sensitive to Fas-mediated apoptosis | did not induce apoptosis | abrogates the BTK-Fas association
